This passage reports IC50 results from BindingDB's records for patent US20250188075 (The Broad Institute, 2025).

By IC50 is commonly meant the midpoint of a concentration-inhibition curve. Read a low IC50 as inhibition by little substance.

Experiment [1] has as its target T1, Casein kinase I isoform alpha (Homo sapiens, UniProt P48729). Kind of experiment: CSNK1A1-Inhibitory Activity Assay (Low ATP). The method, then:
For the assay 50 nl of a 100-fold concentrated solution of the test compound in DMSO was pipetted into a white 1536-well microtiter plate (Greiner Bio-One, Frickenhausen, Germany), 2 μL of a solution of CSNK1A1 in aqueous assay buffer [50 mM HEPES pH 7.5, 10% (v/v) glycerol, 10 mM MgCl2, 50 mM NaCl, 1 mM dithiothreitol, 0.01% (w/v) bovine serum albumin, 0.01% (v/v) Triton X-100] were added and the mixture was incubated for 15 min at 22° C. to allow pre-binding of the test compounds to the enzyme before the start of the kinase reaction. Then the kinase reaction was started by the addition of 3 μL of a solution of ATP (1.67 μM=>final conc. in the 5 μL assay volume is 1 μM) and peptide substrate (50 μM=>final conc. in the 5 μL assay volume is 30 μM) in assay buffer and the resulting mixture was incubated for a reaction time of 30 min at 22° C. The concentration of CSNK1A1 was adjusted depending of the activity of the enzyme lot and was chosen appropriate to have the assay in the linear range, a typical concentrations are about 0.0375 ng/μL. […] Subsequently 2.5 μL of the “kinase detection reagent” (1.2 fold more concentrated than recommended by the producer) were added, the resulting mixture was incubated at 22° C. for 1 h and then the luminescence measured with a suitable measurement instrument (e.g. Viewlux™ from Perkin-Elmer). […]

Experiment [2] addresses T1, Casein kinase I isoform alpha. In words: CSNK1A1-Inhibitory Activity Assay (High ATP). The method, then:
For the assay 50 nl of a 100 fold concentrated solution of the test compound in DMSO was pipetted into a white low volume 384-well microtiter plate (Greiner Bio-One, Frickenhausen, Germany), 2 μL of a solution of CSNK1A1 in aqueous assay buffer [50 mM HEPES pH 7.5, 10% (v/v) glycerol, 10 mM MgCl2, 50 mM NaCl, 1 mM dithiothreitol, 0.01% (w/v) bovine serum albumin, 0.01% (v/v) Triton X-100] were added and the mixture was incubated for 15 min at 22° C. to allow pre-binding of the test compounds to the enzyme before the start of the kinase reaction. Then the kinase reaction was started by the addition of 3 μL of a solution of ATP (1.67 mM=>final conc. in the 5 μL assay volume is 1 mM) and peptide substrate (167 μM=>final conc. in the 5 μL assay volume is 100 μM) in assay buffer and the resulting mixture was incubated for a reaction time of 30 min at 22° C. The concentration of CSNK1A1 was adjusted depending of the activity of the enzyme lot and was chosen appropriate to have the assay in the linear range, a typical concentration is about 0.4 ng/μL. […] Subsequently 2.5 μL of the “kinase detection reagent” (1.2 fold more concentrated than recommended by the producer) were added, the resulting mixture was incubated at 22° C. for 1 h and then the luminescence measured with a suitable measurement instrument (e.g. Viewlux™ from Perkin-Elmer). […]

In experiment [3] the target is Casein kinase I isoform delta (Homo sapiens, UniProt P48730). Kind of experiment: CSNK1D-Inhibitory Activity Assay. The method, then: For the assay 50 nl of a 100-fold concentrated solution of the test compound in DMSO was pipetted into a white 1536-well microtiter plate (Greiner Bio-One, Frickenhausen, Germany), 2 μL of a solution of CSNK1D in aqueous assay buffer [50 mM HEPES pH 7.5, 10% (v/v) glycerol, 10 mM MgCl2, 50 mM NaCl, 1 mM dithiothreitol, 0.01% (w/v) bovine serum albumin, 0.01% (v/v) Triton X-100] were added and the mixture was incubated for 15 min at 22° C. to allow pre-binding of the test compounds to the enzyme before the start of the kinase reaction. Then the kinase reaction was started by the addition of 3 μL of a solution of ATP (1.67 μM=>final conc. in the 5 μL assay volume is 1 μM) and peptide substrate (50 μM=>final conc. in the 5 μL assay volume is 30 μM) in assay buffer and the resulting mixture was incubated for a reaction time of 30 min at 22° C. The concentration of CSNK1D was adjusted depending of the activity of the enzyme lot and was chosen appropriate to have the assay in the linear range, a typical concentration is about 0.5 ng/μL. […] Subsequently 2.5 μL of the “kinase detection reagent” (1.2 fold more concentrated than recommended by the producer) were added, the resulting mixture was incubated at 22° C. for 1 h and then the luminescence measured with a suitable measurement instrument (e.g. Viewlux™ from Perkin-Elmer). […]
Chain of Casein kinase I isoform delta (P48730 whole entry, canonical isoform): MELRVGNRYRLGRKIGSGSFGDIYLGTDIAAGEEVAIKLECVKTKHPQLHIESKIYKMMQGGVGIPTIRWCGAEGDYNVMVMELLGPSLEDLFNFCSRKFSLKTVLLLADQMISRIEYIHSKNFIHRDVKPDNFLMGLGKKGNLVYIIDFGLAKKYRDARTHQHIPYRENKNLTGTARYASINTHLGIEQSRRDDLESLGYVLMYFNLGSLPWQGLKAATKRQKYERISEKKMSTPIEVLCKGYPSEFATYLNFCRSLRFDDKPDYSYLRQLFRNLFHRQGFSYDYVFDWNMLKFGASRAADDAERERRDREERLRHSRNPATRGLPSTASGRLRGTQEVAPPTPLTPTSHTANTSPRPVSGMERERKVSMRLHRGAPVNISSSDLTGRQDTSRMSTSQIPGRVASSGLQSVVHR

For experiment [4], the target named is Casein kinase I isoform gamma-3 (Homo sapiens, UniProt Q9Y6M4). In words: CSNK1G3-Inhibitory Activity Assay. On the procedure:
For the assay 50 nl of a 100 fold concentrated solution of the test compound in DMSO was pipetted into a white 1536-well microtiter plate (Greiner Bio-One, Frickenhausen, Germany), 2 μL of a solution of CSNK1G3 in aqueous assay buffer [50 mM HEPES pH 7.5, 10% (v/v) glycerol, 10 mM MgCl2, 50 mM NaCl, 1 mM dithiothreitol, 0.01% (w/v) bovine serum albumin, 0.01% (v/v) Triton X-100] were added and the mixture was incubated for 15 min at 22° C. to allow pre-binding of the test compounds to the enzyme before the start of the kinase reaction. Then the kinase reaction was started by the addition of 3 μL of a solution of ATP ([…]) and peptide substrate (50 μM=>final conc. in the 5 μL assay volume is 30 μM) in assay buffer and the resulting mixture was incubated for a reaction time of 30 min at 22° C. The concentration of CSNK1G3 was adjusted depending of the activity of the enzyme lot and was chosen appropriate to have the assay in the linear range, a typical concentration is about 0.06 ng/μL. […] Subsequently 2.5 μL of the “kinase detection reagent” (1.2 fold more concentrated than recommended by the producer) were added, the resulting mixture was incubated at 22° C. for 1 h and then the luminescence measured with a suitable measurement instrument (e.g. Viewlux™ from Perkin-Elmer). […]

T1 sequence (P48729 whole entry, canonical isoform): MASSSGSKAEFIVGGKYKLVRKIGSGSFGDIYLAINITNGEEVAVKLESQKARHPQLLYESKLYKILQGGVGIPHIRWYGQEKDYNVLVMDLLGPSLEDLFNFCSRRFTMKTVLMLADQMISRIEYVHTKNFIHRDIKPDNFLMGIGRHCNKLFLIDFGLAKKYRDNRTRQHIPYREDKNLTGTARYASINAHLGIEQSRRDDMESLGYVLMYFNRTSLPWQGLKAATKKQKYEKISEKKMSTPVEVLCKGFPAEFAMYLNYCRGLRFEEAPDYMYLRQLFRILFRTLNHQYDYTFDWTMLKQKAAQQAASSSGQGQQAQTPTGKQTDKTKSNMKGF
Chain of Casein kinase I isoform gamma-3 (Q9Y6M4 whole entry, canonical isoform): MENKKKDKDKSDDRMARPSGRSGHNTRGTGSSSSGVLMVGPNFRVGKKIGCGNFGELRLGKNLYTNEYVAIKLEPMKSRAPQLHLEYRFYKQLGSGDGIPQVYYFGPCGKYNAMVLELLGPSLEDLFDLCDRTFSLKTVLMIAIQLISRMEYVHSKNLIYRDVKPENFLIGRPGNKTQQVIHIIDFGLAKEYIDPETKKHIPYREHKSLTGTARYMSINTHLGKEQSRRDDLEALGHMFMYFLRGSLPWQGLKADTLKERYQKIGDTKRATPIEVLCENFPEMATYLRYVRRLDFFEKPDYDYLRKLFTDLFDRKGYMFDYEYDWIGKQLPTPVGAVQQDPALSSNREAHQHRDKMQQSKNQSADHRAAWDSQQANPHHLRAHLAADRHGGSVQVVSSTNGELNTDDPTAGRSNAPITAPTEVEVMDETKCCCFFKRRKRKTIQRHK

As to `O=C(Cc1cnco1)Nc1cc(-c2[nH]c3cccnc3c2-c2ccccn2)ccn1` [US20250188075, Example 4], the IC50 turned out to be 1.82 nM in experiment [1], 47 nM in experiment [2], 5.22 nM in experiment [3] and 50.3 nM in experiment [4].
